The target in test [1] is T1, α4β2 nAChR (Homo sapiens, UniProt P17787+P43681). The settings on record: read-out: EC50 (partial agonist at α4β2 nAChR); reported in the literature; cited from earlier work.
The target of test [2] is T2, α4β2 nAChR (Rattus norvegicus, UniProt P09483+P12390).
T2 construct: expressed in transfected cells
The experiment in a line: Competition binding with [3H]epibatidine, membrane homogenates of stably transfected cells. The settings on record: for Affinity ratio (α3β4/α4β2): Ki α3β4 divided by Ki α4β2.

In test [3] the target is T1, α4β2 nAChR. The settings on record: read-out: Ki (binding affinity); reported in the literature; cited from earlier work.
The conditions of test [4]: background statement; cited from earlier work.
In a further test the target is T3, α4β2 nAChR's (Homo sapiens, UniProt P17787+P43681).
T3 construct: expressed in transfected cells
The experiment in a line: 86Rb+ efflux assay, agonist activity. It counts as cell-based.

Another test addresses T4, α3β4 nAChR (Rattus norvegicus, UniProt P04757+P12392).
T4 construct: expressed in transfected cells
Put plainly: Competition binding with [3H]epibatidine, membrane homogenates of stably transfected cells.

Another test addresses T5, α4β4 nAChR (Rattus norvegicus, UniProt P09483+P12392).
T5 construct: expressed in transfected cells
The test is described as above.

The target of the next test is T6, α3β4 nAChR subtype (Rattus norvegicus, UniProt P04757+P12392).
T6 construct: expressed in transfected cells; host or cells: KXα3β4R2 cells (named in the result head)
Put plainly: Antagonist activity, block of nicotine stimulated responses. It counts as cell-based. On the procedure: (§1) Compounds 15 and 17a are antagonists of the α4β2 nAChR subtype. […] Compounds 15 and 17a were tested for their antagonist activities at the α4β2 and α3β4 receptors at concentrations from 0.1 μM to 100 μM. […] This is typical of most classical nicotinic ligands.^34

Another test addresses T7, α4β2 nAChR subtype (Homo sapiens, UniProt P17787+P43681).
T7 construct: expressed in transfected cells
Described as above. It counts as cell-based. On the procedure:
as §1

A further test deals with T8, α2β2 nAChR (Rattus norvegicus, UniProt P12389+P12390).
T8 construct: expressed in transfected cells
The experiment in a line: Competition binding with [3H]epibatidine, membrane homogenates of stably transfected cells.

For a further test, the target named is T9, α3β2 nAChR (Rattus norvegicus, UniProt P04757+P12390).
T9 construct: expressed in transfected cells
The test is described as above.

A further test has as its target T10, α2β4 nAChR (Rattus norvegicus, UniProt P12389+P12392).
T10 construct: expressed in transfected cells
Described as above.

Test [5] has as its target rat α3β4 nAChRs (KXα3β4R2 cells) (Rattus norvegicus, UniProt P04757+P12392). The experiment in a line: cell-based. The settings on record: read-out: Relative Emax (% of nicotine Emax) α3β4 nAChR's.

Results on 4 compounds are retold here after US20100048606A1, “10-Substituted Cytisine Derivatives and Methods of Use Thereof” (Georgetown University Office of Technology Commercialization, priority 2006, published 2010).

Usually EC50 stands for the concentration at which the effect is half-maximal. In general, Ki refers to the equilibrium dissociation constant of an inhibitor or competing ligand from its target. As a reminder, the inhibition is how much of the control response was suppressed. For orientation: Emax means the maximal effect, on the per cent scale that the assay sets.

For `O=c1cccc2n1C[C@@H]1CNC[C@H]2C1` [(−)-Cytisine (4), (−)-Cytisine], on α4β2 nAChR [1], the EC50 was approximately 1000 nM. The “Affinity ratio (α3β4/α4β2)” value on α4β2 nAChR [2] is reported as 144. In addition, the Ki at α4β2 nAChR [3] is approximately 1 nM.

Consider `Clc1ccc(C2CC3CCC2N3)cn1` (racemic) [(±)-Epibatidine], for which the Analgesic potency entry in test [4] is on record as “approximately 500 times that of morphine”.

As to `O=c1cc(CO)cc2n1CC1CNCC2C1` (racemic) [rac-17a, 10-(Hydroxymethyl)-1,2,3,4,5,6-hexahydro-1,5-methano-pyrido[1,2-a][1,5]diazocin-8-one], the “Agonist activity at α4β2 (86Rb+ efflux)” value at α4β2 nAChR's (tested at 0.1, 1, 10 and 100 μM) is reported as “did not show agonist activity”. For the same compound, the Ki is 10000 nM at α3β4 nAChR; 68 nM on α4β4 nAChR; 11 nM on α4β2 nAChR [2]; 32 nM at α2β2 nAChR; 467 nM at α3β2 nAChR; 300 nM on α2β4 nAChR. Also, the “Inhibition of the function of the α3β4 nAChR subtype” value on α3β4 nAChR subtype (at 100 μM) is “only slightly inhibited”. Besides, on α3β4 nAChR subtype (concentrations up to 10 μM), the “Block of nicotine stimulated responses at α3β4” value is given as “did not significantly block nicotine stimulated responses”. For the same compound, at α4β2 nAChR subtype (at 100 μM, read-out: Inhibition of the function of the α4β2 nAChR subtype), the inhibition at 100 µM was more than 50%. On α4β2 nAChR subtype (concentrations up to 10 μM), the “Block of nicotine stimulated responses at α4β2” value is recorded as “did not significantly block nicotine stimulated responses”. Besides, the “Affinity ratio (α3β4/α4β2)” value at α4β2 nAChR [2] is 909.

Regarding `CN1CCCC1c1cccnc1` (single isomer, unassigned; (-)) [(−)-Nicotine, reference compound], the Emax came out at 100% on α4β2 nAChR's (read-out: Relative Emax (% of nicotine Emax) α4β2 nAChR's, 86Rb+ efflux, mean ± standard error of three experiments) and 100% in test [5].
